Measured values reported in patent US6407316B1, “Method of increasing foreign protein expression” (priority 1997, dated 2002).

Tests used:
NuCotn® 32B = test: Number of bolls on field-grown NuCotn 32B after side-dress aldicarb; assay type: in vivo, cotton; settings: Temik 15G side-dress 7.8 kg/ha commercial product; after a full growing season
From the text: (§1) Seeds of NuCotn® 32B are planted in a field. Aldicarb, in the form of the commercial product Temik® 15G (a 15% weight/weight granular formulation) is applied as a side-dress at 7.8 kg/ha of commercial product. […] The amount of damage due to bollworm attack on the cotton is less in those treated with aldicarb in comparison to those not treated with aldicarb.

Heliothis virescens = test: Bt cotton tissue incorporated into Heliothis diet, pupation bioassay (EC50P); assay type: in vivo; settings: aldicarb at plant, tissue collected after 90 days
Experimental: Cotton leaves and squares were collected from treatments of Bt Cotton wherein the cotton was treated with Temik® 15G under the following conditions;
A) 0.45 lbs active ingredient per acre at plant (0.5 kg/ha)
B) […] active ingredient per acre at plant; […] and
C) 0.75 lbs active ingredient per acre (0.84 kg/ha) at plant and followed 3 weeks later by a side-dress treatment of 1.0 lbs per acre (1.12 kg/ha) of active ingredient.
One planting was not treated with aldicarb.
After 90 days leaves and squares were collected, washed with soap and water, allowed to dry, washed with acetone, allowed to dry and finally washed with chloroform. The tissues were then freeze dried, ground in a mortar and pestle and stored at room temperature.
The cotton tissues were incorporated into a Heliothis diet and fed to Heliothis virescens. The larvae in the cups were weighed at seven days after infestation and the number of pupae were counted 14 and 21 days after infestation. The percent pupation was calculated at the different concentrations and the EC50P (the amount of tissue per liter of diet that reduced pupation by 50%) was calculated for each insecticide treatment to express the amount of toxin activity in the treatment.

delta-endotoxin = test: Delta-endotoxin level in tissues of field-grown NuCotn 32B after in-furrow aldicarb; assay type: in vivo, cotton (NuCotn® 32B); settings: Temik 15G in furrow, about 0.5 kg/ha active ingredient; various points in the growing season
Experimental: Seeds of NuCotn® 32B are planted in a field. Aldicarb, in the form of the commercial product Temik® 15G (a 15% weight/weight granular formulation) is applied in the furrow that comprises the seed at a rate of about 0.5 kg/ha of active ingredient or 3.3 kg/ha of commercial product. At various points in the growing season, the plant tissues are tested for the levels of the delta-endotoxin.

Roundup Ready® Cotton [1] = test: Fruiting of Roundup Ready Cotton, insecticide at planting, Roundup at four-leaf stage; assay type: in vivo; settings: for % change from UTC (Squares per Plant) / Squares per Plant / % change from UTC (Squares + Bolls) / Squares + Bolls: Roundup at four-leaf stage; for % change from UTC (Squares per Plant) / Squares per Plant: 45 days after Roundup treatment; for % change from UTC (Squares + Bolls) / Squares + Bolls: after 62 days
Experimental: (§2) A plot of Roundup Ready® Cotton (RRC was grown up. One part of the plot was treated with Temik® at a rate of 5.6 kg/ha of commercial product at the time of planting of the seed. Another part was treated with Disyston® (disulfoton) at 22.24 kg of commercial product/ha the time of planting of the seed. Another part of the plot was grown from seed treated with Gauch® (imidactoprid) at a rate of 0.357 kg of commercial product per 100 kg of seed. One part of the plot was left untreated by an insecticide which is called hereafter the untreated check (UTC).
The isopropylamine salt of glyphosate was applied to all the cotton plants at the four-leaf stage in the form of the commercial product Roundup® at a rate of 32 oz of commercial product per acre (=[…] of active ingredient). The following results were observed 45 days after the Roundup® treatment:
After 62 days, many squares had matured to bolls and the following observations were made: […]

Roundup Ready® Cotton [2] = test: Fruiting of Roundup Ready Cotton, insecticide at planting, Roundup at six-leaf stage; assay type: in vivo; settings: for % change from UTC (Squares per Plant) / Squares per Plant: 40 days after Roundup treatment; for % change from UTC (Square & Bolls) / Square & Bolls: after 57 days
Experimental: as §2
Roundup Ready® Cotton was grown up as in Example 5 and treated with Roundup at the six-leaf stage.
The following results were observed 40 days after the Roundup® treatment:
After 57 days, many of the square had matured to bolls.

bollworm = test: Bollworm damage on field-grown NuCotn 32B after side-dress aldicarb; assay type: in vivo; settings: Temik 15G side-dress 7.8 kg/ha commercial product; after a full growing season
From the text: as §1

| SMILES | number of bolls on the plants vs not treated (NuCotn® 32B) | amount of tissue to reduce pupation by 50% (EC50P) vs untreated check (Heliothis virescens; leaf tissue, reading three weeks after infestation) | amount of tissue to reduce pupation by 50% (EC50P) vs untreated check (Heliothis virescens; leaf tissue, reading two weeks after infestation) | amount of tissue to reduce pupation by 50% (EC50P) vs untreated check (Heliothis virescens; square tissue, reading three weeks after infestation) | amount of tissue to reduce pupation by 50% (EC50P) vs untreated check (Heliothis virescens; square tissue, reading two weeks after infestation) | level of the delta-endotoxin in plant tissues vs plants not treated (delta-endotoxin) | % change from UTC (Squares per Plant) (Roundup Ready® Cotton [1]) | Squares per Plant (Roundup Ready® Cotton [1]) | % change from UTC (Squares + Bolls) (Roundup Ready® Cotton [1]) | Squares + Bolls (Roundup Ready® Cotton [1]) | yield of cotton compared with UTC or cotton treated with other pesticides (Roundup Ready® Cotton [1]; herbicide at the four-leaf stage, summary of Example 5) | % change from UTC (Squares per Plant) (Roundup Ready® Cotton [2]) | Squares per Plant (Roundup Ready® Cotton [2]) | % change from UTC (Square & Bolls) (Roundup Ready® Cotton [2]) | Square & Bolls (Roundup Ready® Cotton [2]) | amount of damage due to bollworm attack vs not treated (bollworm) |
| --- | --- | --- | --- | --- | --- | --- | --- | --- | --- | --- | --- | --- | --- | --- | --- | --- |
| CNC(=O)ON=CC(C)(C)SC [aldicarb, 2-methyl-2-(methylthio)propionaldehyde O-(methylcarbamoyl)oxime] | larger number of bolls | higher amounts of tissue | higher amounts of tissue | lesser amounts of tissue | lesser amounts of tissue | higher level of the endotoxin | +21% | 9.05 | +18.7% | 18.7 | increases the yield of cotton | +23% | 10.95 | +11% | 16.0 | less |
| O=[N+]([O-])N=C1NCCN1Cc1ccc(Cl)nc1 [imidacloprid, 1-(6-chloro-3-pyridylmethyl)-N-nitroimidazolidin-2-ylideneamine] |  |  |  |  |  |  | +18% | 8.70 | −0.2% | 14.8 |  | −14% | 7.60 | +14% | 16.5 |  |
| CCOP(=S)(OCC)SCCSCC [disulfoton] |  |  |  |  |  |  | +2% | 7.65 | −15.0% | 12.8 |  | −36% | 5.65 | +14% | 16.5 |  |
